Experimental data taken from US12565489B2, “Heterocyclyl pyrimidines and triazines as novel fungicides” (Bayer Aktiengesellschaft, priority 2020, dated 2026).

Experiments:
[1] = test system: Botrytis cinerea; test: Botrytis cinerea in vitro cell test; format: cell-based; details: 144 h, 20 ppm of active ingredient, 6 days incubation, liquid culture, spectrometric measurement of mycelium growth, read-out: efficacy (inhibition of fungal growth)
Protocol: (§1) • Solvent: DMSO • Culture medium: 1 g KH2PO4 (VWR), 1 g K2HPO4 (VWR), 0.5 g Urea (VWR), 3 g KNO3 (Prolabo), 10 g saccharose (VWR), 0.5 g MgSO4, 7H2O (Sigma), 0.07 g CaCl2, 2H2O (Prolabo), 0.2 mg MnSO4, H2O (Sigma), 0.6 mg CuSO4, 5H2O (Sigma), 7.9 mg ZnSO4, 7H2O (Sigma), 0.1 mg H3BO3 (Merck), 0.14 mg NaMoO4, 2H2O (Sigma), 2 mg thiamine (Sigma), 0.1 mg biotine (VWR), 4 mg FeSO4, 7H2O (Sigma), QSP 1 liter • Inoculum: spore suspension Fungicides were solubilized in DMSO and the solution used to prepare the required range of concentrations. […] A spore suspension of B. cinerea was prepared and diluted to the desired spore density. Fungicides were evaluated for their ability to inhibit spore germination and mycelium growth in liquid culture assay. The compounds were added in the desired concentration to the culture medium with spores. After 6 days incubation, fungi-toxicity of compounds was determined by spectrometric measurement of mycelium growth. Inhibition of fungal growth was determined by comparing the absorbance values in wells containing the fungicides with the absorbance in control wells without fungicides.

[2] = test system: Pyrenophora teres; test: Pyrenophora teres in vitro cell test; format: cell-based; details: 144 h, 20 ppm of active ingredient, 6 days incubation, liquid culture, spectrometric measurement of mycelium growth, read-out: efficacy (inhibition of fungal growth)
Protocol: (§2) • Solvent: DMSO • Culture medium: 14.6 g anhydrous D-glucose (VWR), 7.1 g Mycological Peptone (Oxoid), 1.4 g granulated Yeast Extract (Merck), QSP 1 liter • Inoculum: spore suspension Fungicides were solubilized in DMSO and the solution used to prepare the required range of concentrations. […] A spore suspension of P. teres was prepared and diluted to the desired spore density. Fungicides were evaluated for their ability to inhibit spore germination and mycelium growth in liquid culture assay. The compounds were added in the desired concentration to the culture medium with spores. After 6 days incubation, fungi-toxicity of compounds was determined by spectrometric measurement of mycelium growth. Inhibition of fungal growth was determined by comparing the absorbance values in wells containing the fungicides with the absorbance in control wells without fungicides.

[3] = test system: Pyricularia oryzae; test: microbe, parasite or virus in culture; format: cell-based; details: 120 h, read-out: efficacy (inhibition of fungal growth)
[4] = test system: Septoria tritici; test: Septoria tritici in vitro cell test; format: cell-based; details: Zymoseptoria tritici, 168 h; 20 ppm of active ingredient; 7 days incubation; liquid culture, spectrometric measurement of mycelium growth; read-out: efficacy (inhibition of fungal growth)
Protocol: as §1, with “S. tritici” for “B. cinerea”, “After 6 days incubation, fungi-toxicity of compounds was determined by spectrometric measurement of mycelium growth.” left out

[5] = test system: Colletotrichum lindemuthianum; test: Colletotrichum lindemuthianum in vitro cell test; format: cell-based; details: 144 h, 20 ppm of active ingredient, 6 days incubation, liquid culture, spectrometric measurement of mycelium growth, read-out: efficacy (inhibition of fungal growth)
Protocol: as §2, with “of C. lindemuthianum” for “of P. teres”, “inhibit spores” for “inhibit spore”

[6] = test system: Botrytis cinerea; test: In vivo preventive test on Botrytis cinerea (grey mould); details: 500 ppm of active ingredient, preventive spray on young gherkin or cabbage plants, evaluated 4 to 5 days after inoculation, read-out: efficacy
Protocol: (§3) The active ingredients were made soluble and homogenized in a mixture of Dimethyl sulfoxide/Acetone//Tween®80 and then diluted in water to the desired concentration. The young plants of gherkin or cabbage were treated by spraying the active ingredient prepared as described above. Control plants were treated only with an aqueous solution of Acetone/Dimethyl sulfoxide/Tween® 80. After 24 hours, the plants were contaminated by spraying the leaves with an aqueous suspension of Botrytis cinerea spores.

[7] = Measurement of Log P values by HPLC on reversed phase columns (EEC directive 79/831 Annex V.A8); format: physicochemical; details: LogP
Protocol: Measurement of Log P values as provided herein was performed according to EEC directive 79/831 Annex V.A8 by HPLC (High Performance Liquid Chromatography) on reversed phase columns with the following methods: • ^[a] Log P value is determined by measurement of LC-UV, in an acidic range, with 0.1% formic acid in water and acetonitrile as eluent (linear gradient from 10% acetonitrile to 95% acetonitrile). • ^[b] Log P value is determined by measurement of LC-UV, in a neutral range, with 0.001 molar ammonium acetate solution in water and acetonitrile as eluent (linear gradient from 10% acetonitrile to 95% acetonitrile). • ^[c] Log P value is determined by measurement of LC-UV, in an acidic range, with 0.1% phosphoric acid and acetonitrile as eluent (linear gradient from 10% acetonitrile to 95% acetonitrile).
If more than one Log P value is available within the same method, all the values are given and separated by “+”.
Calibration was done with straight-chain alkan2-ones (with 3 to 16 carbon atoms) with known Log P values (measurement of Log P values using retention times with linear interpolation between successive alkanones). Lambda-max-values were determined using UV-spectra from 200 nm to 400 nm and the peak values of the chromatographic signals

[8] = test system: Alternaria brassicae; test: In vivo preventive test on Alternaria brassicae (leaf spot on radish or cabbage); details: 144 h, 500 ppm of active ingredient, preventive spray on young radish or cabbage plants, evaluated 6 days after inoculation, read-out: efficacy
Protocol: as §3, with “radish” for “gherkin”, “Alternaria brassicae” for “Botrytis cinerea”

[9] = test system: Sphaerotheca fuliginea; test: In vivo preventive test on Sphaerotheca fuliginea (powdery mildew on cucurbits); details: Podosphaera fuliginea, 192 h; 500 ppm of active ingredient; preventive spray on young gherkin plants; evaluated 8 days after inoculation; read-out: efficacy
Protocol: as §3, with “gherkin” for “gherkin or cabbage”, “Sphaerotheca fuliginea” for “Botrytis cinerea”

[10] = test system: Alternaria alternata; test: Alternaria alternata in vitro cell test; format: cell-based; details: 120 h, 20 ppm of active ingredient, 5 days incubation, liquid culture, spectrometric measurement of mycelium growth, read-out: efficacy (inhibition of fungal growth)
Protocol: as §2, with “of A. alternata” for “of P. teres”, “After 5” for “After 6”

Compound `Cc1ncc(Oc2cccc(Cl)c2)c(C2=NOCC(c3ccc4c(c3)CCC4)N2)n1` (racemic) [Compound I-014, (5RS)-3-[5-(3-chlorophenoxy)-2-methyl-pyrimidin-4-yl]-5-indan-5-yl-5,6-dihydro-4H-1,2,4-oxadiazine] has an inhibition at 20 ppm [1] of 90 to 100%, an inhibition at 20 ppm [2] of 90 to 100% and an inhibition at 20 ppm [3] of 90 to 100%. The inhibition at 20 ppm [4] was 90 to 100%, the inhibition at 20 ppm [5] was 90 to 100% and the pest or weed control at 500 ppm [6] was 90 to 100%. For the same compound, the chromatographic logP [7] was 4.05, the pest or weed control at 500 ppm [8] was 90 to 100% and the pest or weed control at 500 ppm [9] was 90 to 100%. The inhibition at 20 ppm [10] was 90 to 100%.

`Cc1ccc(CC2CON=C(c3nc(C)ncc3Oc3cccc([N+](=O)[O-])c3)N2)c(C)c1` (racemic) [Compound I-003, (5RS)-5-(2,4-dimethylbenzyl)-3-[2-methyl-5-(3-nitro-phenoxy)pyrimidin-4-yl]-5,6-dihydro-4H-1,2,4-oxadiazine] gave an inhibition at 20 ppm [1] of 90 to 100%, an inhibition at 20 ppm [2] of 90 to 100% and an inhibition at 20 ppm [3] of 90 to 100%. For the same compound, the inhibition at 20 ppm [4] was 90 to 100%, the inhibition at 20 ppm [5] was 90 to 100% and the pest or weed control at 500 ppm [6] was 90 to 100%. The chromatographic logP [7] was 3.78, the pest or weed control at 500 ppm [8] was 90 to 100% and the pest or weed control at 500 ppm [9] was 80 to 89%. For the same compound, the inhibition at 20 ppm [10] was 90 to 100%.
